Like-named read-outs stand apart in the source and are kept apart here.

Data set [1] concerns AON mutant fly strain. The data set is described as follows: whole plant or invertebrate. Type of data set: in vivo, Drosophila melanogaster. Conditions: for Phenotype AON + E: larva fed .5 μg/ml estrogen, >90% of 100 flies. The protocol:
(§1) Each compound was prepared over a range of dilutions and each was tested for the activity of alleviating the adult onset neurodegeneration condition. The compound dilutions were uptaken by either the larva or adult flies. The compound dilutions were mixed into the nutrient media and this served as the food/water source for either larva or flies. The adult onset neurodegeneration symptoms and their timelines were monitored for each compound dilution and compared to the no treatment control. Compounds examined here included: beta-estradiol, zinc chloride, sodium chloride, water, chocolate, and phosphate buffered saline.
In addition, compounds were also tested in the AON mutant fly strain that were known not to influence human AON conditions. Finally, a complex mixture with unknown influence on human AON conditions was tested in the AON mutant fly strain.

The test system of data set [2] is wild-type adult flies. In words: Wild-type flies fed estrogen, phenotype by adult age. Note: key: None = normal adult fly; WC = loss of wing control; WP = wings paralyzed; C = loss of coordination and locomotion capabilities; L = flies stop uptaking liquid; D = death. The data set is classed as in vivo, Drosophila melanogaster. The conditions noted are these: larva fed .5 μg/ml estrogen. The protocol:
as §1

The mark [3] stands for this setting: Drosophila melanogaster, po, read-out: S increased (S = AON symptom free adult time span).
Throughout, for Phenotype AON + E: key: None = normal adult fly; WC = loss of wing control; WP = wings paralyzed; C = loss of coordination and locomotion capabilities; L = flies stop uptaking liquid; D = death.

For the molecule `C[C@]12N[C@H](Cc3ccccc31)c1ccccc12` [Dizocilipine], in data set [1] (dose .00006 mg/ml), the “S increased (S = AON symptom free adult time span)” value was found to be 17%. Further, the AON symptoms delayed entry in data set [1] (dose .0006 mg/ml) is on record as “delayed 2 days”. In addition, in data set [1] (dose .06 mg/ml), the AON growth result is recorded as “delayed” and the “result (effect on AON phenotype)” value is “No”. In addition, the L.D. result in data set [1] (in vivo) is “L.D. 100”.

As to `CC(C)C[C@H]1C(=O)N2CCC[C@H]2[C@]2(O)O[C@](NC(=O)[C@@H]3C=C4c5cccc6[nH]c(Br)c(c56)C[C@H]4N(C)C3)(C(C)C)C(=O)N12` [Bromocriptine], the change in vivo at 10 µg/mL in data set [1] (Drosophila melanogaster, po, dose .01 mg/ml, read-out: S increased (S = AON symptom free adult time span)) was 33%. Further, the L.D. result in data set [1] (dose .1 mg/ml) was “L.D. 100”.

For `Nc1nc2ccc(OC(F)(F)F)cc2s1` [Riluzole], in data set [1] (setting [3]), the change in vivo at 10 µg/mL is 100%. In data set [1] (dose .01 mg/ml), the “D increased (D = life span)” value is “increased 17%”.

Take `COc1ccc2[nH]cc(CCNC(C)=O)c2c1` [Melatonin]: in data set [1] (dose 5 mg/ml), the L.D. result is “L.D. 100”. The “result (effect on AON phenotype)” value in data set [1] (dose .0005 mg/ml), in data set [1] (dose .005 mg/ml), in data set [1] (dose .05 mg/ml) and in data set [1] (dose .5 mg/ml) was “No Effect” each time.

Consider `[Cl-].[Cl-].[Zn+2]` [Zinc, zinc chloride], for which, in data set [1] (higher concentrations, 50-100 μgrams/ml of nutrient media, oral), the “effect on the AON condition” value is listed as “exacerbated the AON condition”. Besides, in data set [1] (low concentrations, 10-20 μgrams/ml of nutrient media, oral), the “effect on the mutant AON fly strain” value is listed as “no effect was observed”.

As to `OC(CCN1CCCCC1)(c1ccccc1)C1CCCCC1` (centres unmarked) [Trihexyphenidyl], in data set [1] (setting [3]), the change in vivo at 100 µg/mL is about 25% and the change in vivo at 1000 µg/mL was 33%.

Take beta-estradiol [Estrogen]: the “effect on the AON condition in the mutant fly strain” value in data set [1] (administered orally) is “alleviates the AON condition”. In addition, the “Phenotype AON + E” value in data set [1] (age of adult 0-1 hours) and in data set [1] (age of adult 1-3 hours) was “None” in each case. Also, in data set [1] (dose 5 mg/ml), the “D increased (D = life span)” value is reported as “increased 68%”. In addition, the “S increased (S = AON symptom free adult time span)” value in data set [1] (dose 5 mg/ml) is on record as 100%, D; in data set [1] (dose .5 mg/ml), 200%. The “Phenotype Wt + E” value in data set [2] (age of adult 0-1 hours), in data set [2] (age of adult 1-3 hours), in data set [2] (age of adult 3-24 hours), in data set [2] (age of adult 24-36 hours), in data set [2] (age of adult 36-72 hours) and in data set [2] (age of adult 72-144 hours) was “None” throughout. Moreover, the “Phenotype Wt + E” value in data set [2] (age of adult 144+ hours) is recorded as “None”.

As to `CN1[C@@H]2CC[C@H]1C[C@@H](OC(c1ccccc1)c1ccccc1)C2` [Benztropine], in data set [1] (setting [3]), the change in vivo at 0.023 µg/mL is 400%, the change in vivo at 0.23 µg/mL is 300% and the change in vivo at 23 µg/mL stood at 500%. The “D increased (D = life span)” value in data set [1] (dose .000023 mg/ml) is 33%. In addition, the “D increased (D = life span)” value in data set [1] (dose .00023 mg/ml) amounted to 17%. In data set [1] (dose .023 mg/ml, AON class), the “L.D., AON class” value was “L.D. 95,”. In addition, in data set [1] (dose .23 mg/ml), the L.D. entry is recorded as “L.D. 100”.

In the case of `CCCn1cnc2c1c(=O)n(CCCCC(C)=O)c(=O)n2C` [Propentofylline], the change in vivo at 5000 µg/mL in data set [1] (setting [3]) was 200%. The L.D. result in data set [1] (dose 5 mg/ml) is “L.D. 80,”. Besides, the “D increased (D = life span)” value in data set [1] (dose 5 mg/ml, escapers) came to 17%.

`N[C@@H](Cc1ccc(O)c(O)c1)C(=O)O` [Levodopa]: in data set [1] (setting [3]), the change in vivo at 0.15 µg/mL was 100%.

Take `Cc1c(C)c2c(c(C)c1O)CC[C@@](C)(CCC[C@H](C)CCC[C@H](C)CCCC(C)C)O2` [Alpha Tocopherol]: the L.D. entry in data set [1] (dose 1 mg/ml) is “L.D. 30,”. In data set [1] (dose 1 mg/ml, escapers), the “D increased (D = life span)” value is “increased 33%” and the “S increased (S = AON symptom free adult time span)” value is given as 200%, D.

On to `[Cl-].[Na+]` [sodium chloride], for which the “effect on the AON phenotype in the mutant fly strain” value in data set [1] (oral, dose not stated) is “no effect”.

As for `CCCN1C[C@H](CSC)C[C@@H]2c3cccc4[nH]cc(c34)C[C@H]21` [pergolide], the “effect in the AON fly drug screening” value in data set [1] (dose not stated) was “did not show any effect”.

As for `C#CCN(C)[C@H](C)Cc1ccccc1` [Selegiline], in data set [1] (Drosophila melanogaster, po, dose .0002 mg/ml, read-out: S increased (S = AON symptom free adult time span)), the change in vivo at 0.2 µg/mL worked out at 200%. The change in vivo at 20 µg/mL in data set [1] (Drosophila melanogaster, po, dose .02 mg/ml, read-out: S increased (S = AON symptom free adult time span)) turned out to be 100%. Moreover, in data set [1] (dose 2 mg/ml), the L.D. result is recorded as “L.D. 100”. In data set [1] (dose .2 mg/ml, AON class only), the “L.D., AON class only” value is on record as “only, L.D. 95,”. Also, the “result (effect on AON phenotype)” value in data set [1] (dose .2 mg/ml, escapers) was “No Effect”.

Regarding `CCN(CC)C(=O)N[C@H]1C=C2c3cccc4[nH]cc(c34)C[C@H]2N(C)C1` [Lisuride], the change in vivo at 2 µg/mL in data set [1] (Drosophila melanogaster, po, dose .002 mg/ml, read-out: S increased (S = AON symptom free adult time span)) was 100%. Also, the L.D. entry in data set [1] (dose 2 mg/ml) is on record as “L.D. 100”; in data set [1] (dose .002 mg/ml) it was “L.D. 60, S”; in data set [1] (dose .02 mg/ml, (no AON flies)) it was “L.D. 99 (no”; in data set [1] (dose .2 mg/ml) it was “L.D. 100”.

Turning to `NC(=O)c1cccnc1` [Nicotinamide], the change in vivo at 5000 µg/mL in data set [1] (setting [3]) is 100%. Further, in data set [1] (dose 5 mg/ml), the L.D. result is on record as “L.D. 90, S”.

As for `CN1C(=O)CN=C(c2ccccc2)c2cc(Cl)ccc21` [Diazepam], the L.D. entry in data set [1] (AON mutant fly strain, Drosophila melanogaster, in vivo) is “L.D. 100”. In addition, the “result (effect on AON phenotype)” value in data set [1] (in vivo) was “No Effect”.

Regarding `Nc1c2c(nc3ccccc13)CCCC2` [Tacrine], the change in vivo at 0.5 µg/mL in data set [1] (setting [3]) was determined as 100%.

Source of the values: patent US6489535B1, “Non-mammalian transgenic animal having an adult onset neurodegenerative phenotype” (priority 1999, dated 2002).
